Results on 3 molecules are retold here after patent US20220288051A1, “METHODS FOR TREATING CANCER USING SERIAL ADMINISTRATION OF E3 UBIQUITIN LIGASE DEGRADERS” (Dana-Farber Cancer Institute, Inc., priority 2019, published 2022).

One data set has as its system MM.1S-dCas9-VP64 cells. Kind of data set: Genome-scale CRISPR gene activation resistance screens. In kind it is cell-based, human. As to conditions: Calabrese library; successive rounds of treatment. As for the experimental part: We also performed genome-scale CRISPR-based gene-activation screens, which followed the “long-term” configuration of the gene editing studies.
For the genome-scale screen with the Calabrese sgRNA library, tumor cells were transduced in batches of 3×10^7 cells per sublibrary for triplicates. Cells were incubated (18 h) in cell medium containing polybrene (4 μg/mL; Santa Cruz Biotechnology), 10 mM HEPES (pH 7.4) (Sigma-Aldrich) and viral prep (30 mL) diluted 1:1. Transduced cells were cultured at an initial density of 1×10^6 cells/mL and were treated with puromycin (1 μg/mL) for up to 7 days additional two days from transduction. After stable transduction, pooled MM.1S cells were plated at 30×10^6 cells per flask (T175, 100 mL) to enable coverage of 500× and were sub-cultured at three- to four-day intervals to prevent confluence. […]
Cells were immediately harvested (30×10^6) and sgRNA distribution assessed, by next generation sequencing.
iv. […] DNA concentration was quantified by UV-spectroscopy (NanoDrop 8000; ThermoFisher Scientific). […] Multiplexed samples were then sequenced at the Molecular Biology Core Facility (Dana-Farber Cancer Institute) and/or The Genomics Platform (Broad Institute) using an Illumina NextSeq 500 (Illumina, San Diego, Calif.), allowing […] individual reads per multiplexed sample.

The next data set deals with pools of MM cells. Kind of data set: Sequential exposure to CRBN- and VHL-based degraders, CTG. Format: cell-based, human. As to conditions: compared to treatment-naïve cells. The text has this:
We addressed this question using pools of MM cells derived from several of our genome-scale CRISPR-based screens.

A further data set has as its target MDR1 transporter (Homo sapiens, UniProt P08183). As to conditions: stated as fact; cited from earlier work.
Another data set has as its system MM.1S-Cas9+ cells. Nature of the data set: Genome-scale CRISPR/Cas9 gene editing (LOF) resistance screens. Format: cell-based, human. The conditions noted are these: 25 nM for 48 hrs; Brunello library.
In data set [1] the test system is MM cells cultured in the presence of bone-marrow stromal cells. Kind of data set: CS-BLI viability in co-culture with bone marrow stromal cells. As to conditions: co-culture vs MM cells alone. In kind it is cell-based, human. As for the experimental part:
Cell viability and growth of human MM cell lines were assessed using CellTitre-Glo (CTG) assay (Promega, Madison, Wis.) per kit instructions, or CS-BLI as described (Delmore et al., 2011). Briefly, cells were seeded (5×10^3 cells/well) into 96- or 384-well opaque plates, in supplemented media (40 or 50 uL) and incubated for 24 h prior to addition of drug. For co-culture experiments, HS27A cells were pre-seeded (5×10^3 cells/well) into each well in media prior (24 h) to the addition of MM cells. At each time point (24 h, 48 h, and/or 72 h) CTG reagent (10% volume) was added to each well, and plates were read using a microplate reader (BioTek Synergy 2, BioTek, Winooski, Va.).

In another data set the target is T1, BRD2 (Homo sapiens, UniProt P25440).
T1 construct: endogenous in cells; host or cells: MM.1S
T1 sequence (P25440 whole entry): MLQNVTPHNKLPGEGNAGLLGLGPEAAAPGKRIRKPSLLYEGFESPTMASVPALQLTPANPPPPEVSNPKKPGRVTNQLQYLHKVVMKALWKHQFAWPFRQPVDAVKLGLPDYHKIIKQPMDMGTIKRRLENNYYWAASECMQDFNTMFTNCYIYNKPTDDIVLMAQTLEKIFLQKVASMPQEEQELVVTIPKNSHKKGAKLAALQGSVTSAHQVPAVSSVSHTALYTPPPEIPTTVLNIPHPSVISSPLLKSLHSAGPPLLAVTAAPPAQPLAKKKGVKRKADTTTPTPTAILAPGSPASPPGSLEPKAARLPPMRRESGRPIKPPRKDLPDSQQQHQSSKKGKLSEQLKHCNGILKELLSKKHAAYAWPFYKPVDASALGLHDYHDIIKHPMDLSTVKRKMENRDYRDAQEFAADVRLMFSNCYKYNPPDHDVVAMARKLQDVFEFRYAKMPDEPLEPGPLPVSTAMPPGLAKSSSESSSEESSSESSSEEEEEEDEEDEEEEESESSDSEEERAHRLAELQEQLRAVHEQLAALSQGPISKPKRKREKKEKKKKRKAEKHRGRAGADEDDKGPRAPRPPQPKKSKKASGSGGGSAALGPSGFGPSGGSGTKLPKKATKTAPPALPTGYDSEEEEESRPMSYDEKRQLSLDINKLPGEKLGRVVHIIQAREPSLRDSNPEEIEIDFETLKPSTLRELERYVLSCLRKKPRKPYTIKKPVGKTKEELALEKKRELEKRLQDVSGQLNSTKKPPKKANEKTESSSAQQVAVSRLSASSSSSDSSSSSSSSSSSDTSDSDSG
Kind of data set: Immunoblotting of degronimid-treated MM.1S cells: BRD2. Format: cell-based. As to conditions: 0.01-1 μM, 4 h. As for the experimental part: (§1) MM.1S cells were seeded in 6-well plates at 3×10^6 cells/well (˜24 h prior to addition of drug). […] Cell pellets were thawed on ice, lysed using RIPA buffer (ThermoFisher) with protease/phosphatase inhibitor cocktail (Cell Signal Technology, Danvers, Mass.) by incubating on ice 30 min. The lysates were clarified by spinning at 10,000 g for 10 min at 4° C. and the concentration of the lysate was determined using BCA protocol (ThermoFisher). Samples were prepared for Western blot using LDS sample buffer (NuPage, Invitrogen, Carlsbad, Calif., USA) with sample reducing agent (NuPage, Invitrogen) and heated to 95° C. for 5 min. Samples were loaded (20 ug/sample) into Tris-acetate or Bis-Tris gels (NuPage, Invitrogen) and run as per kit instructions using appropriate running buffers. Gels were transferred as described (Matthews et al., 2015) onto PVDF membrane using SDS-based transfer buffer (NuPage, Invitrogen). Membranes were blocked (5% skim milk; or 5% bovine serum albumin in TBS-T) for at least 30 min then probed with primary antibodies overnight (4° C.). […] Each protein of interest (BRD2, BRD3, BRD4, c-myc and CDK9) was assessed in a separate gel and corresponding membrane (which was simultaneously incubated with antibodies for both the target protein of interest and GAPDH, to provide a loading control within the same blot). […]
A general note: In western blotting, separated proteins are transferred to a membrane and probed.

The next data set relates to c-Myc. Nature of the data set: Immunoblotting of degronimid-treated MM.1S cells: c-Myc. Format: cell-based, human. The conditions noted are these: 0.01-1 μM, 4 h. The procedure: as §1
Another data set relates to MM.1S cells. Kind of data set: RNA-sequencing of treated MM.1S cells. In kind it is cell-based, human.
In data set [2] the test system is OPM1, OCI-MY5, KMS11 and OPM2 (shRNAs against CRBN). Kind of data set: CTG viability of MM cell lines with low CRBN levels. Format: cell-based, human. The conditions noted are these: low but detectable CRBN, constitutive or shRNA. From the text: Human MM cell lines KMS11 and OPM-2 expressing non-targeting control shRNAs or shRNA.

Chain of MDR1 transporter (P08183 whole entry): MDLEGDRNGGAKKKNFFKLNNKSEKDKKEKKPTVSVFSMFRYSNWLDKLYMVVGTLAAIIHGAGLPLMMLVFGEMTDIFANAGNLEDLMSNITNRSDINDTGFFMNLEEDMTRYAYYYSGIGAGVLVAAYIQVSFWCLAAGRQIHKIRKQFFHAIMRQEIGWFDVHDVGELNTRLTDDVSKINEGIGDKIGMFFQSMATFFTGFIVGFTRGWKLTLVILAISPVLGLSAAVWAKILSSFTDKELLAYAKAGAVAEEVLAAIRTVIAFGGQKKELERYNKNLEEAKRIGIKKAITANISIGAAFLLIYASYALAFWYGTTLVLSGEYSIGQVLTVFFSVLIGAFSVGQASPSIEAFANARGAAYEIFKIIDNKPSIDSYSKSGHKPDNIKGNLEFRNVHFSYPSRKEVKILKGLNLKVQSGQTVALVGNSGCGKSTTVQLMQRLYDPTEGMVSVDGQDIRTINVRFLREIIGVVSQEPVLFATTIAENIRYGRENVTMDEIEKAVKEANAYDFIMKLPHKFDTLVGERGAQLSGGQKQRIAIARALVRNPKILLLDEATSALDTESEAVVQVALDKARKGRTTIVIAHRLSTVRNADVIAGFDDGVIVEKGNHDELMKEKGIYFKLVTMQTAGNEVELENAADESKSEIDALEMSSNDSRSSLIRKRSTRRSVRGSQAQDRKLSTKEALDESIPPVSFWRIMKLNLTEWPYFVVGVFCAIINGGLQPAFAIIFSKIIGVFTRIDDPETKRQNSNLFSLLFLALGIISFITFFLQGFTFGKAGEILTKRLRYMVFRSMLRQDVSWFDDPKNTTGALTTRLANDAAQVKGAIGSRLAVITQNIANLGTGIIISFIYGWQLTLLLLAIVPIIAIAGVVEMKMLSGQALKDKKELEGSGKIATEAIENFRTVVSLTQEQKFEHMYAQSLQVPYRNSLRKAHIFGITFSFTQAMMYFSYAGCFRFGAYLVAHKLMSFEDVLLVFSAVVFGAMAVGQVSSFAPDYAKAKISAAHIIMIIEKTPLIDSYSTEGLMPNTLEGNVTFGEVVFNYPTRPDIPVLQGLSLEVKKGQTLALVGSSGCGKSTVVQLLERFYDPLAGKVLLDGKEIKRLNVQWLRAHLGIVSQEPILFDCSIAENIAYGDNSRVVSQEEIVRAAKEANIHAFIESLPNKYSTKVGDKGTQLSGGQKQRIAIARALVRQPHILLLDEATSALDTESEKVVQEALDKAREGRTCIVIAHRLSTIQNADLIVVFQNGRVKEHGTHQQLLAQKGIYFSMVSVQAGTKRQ

Consider `Cc1ncsc1-c1ccc([C@H](C)NC(=O)[C@@H]2C[C@@H](O)CN2C(=O)[C@@H](NC(=O)COCCCOCCNC(=O)C[C@@H]2N=C(c3ccc(Cl)cc3)c3c(sc(C)c3C)-n3c(C)nnc32)C(C)(C)C)cc1` [ARV-771], for which, in the data set on MM.1S-dCas9-VP64 cells, the “sgRNA enrichment, gene activation screen” value is listed as “ABCB1, the gene for the MDR1 transporter, was commonly identified as the only gene with sgRNA enrichment”. Also, in the data set on pools of MM cells, the “response of pools previously exposed to ARV771 and then MZ1” value is recorded as “significantly decreased responsiveness”; the “shift of dose response curve in pools previously exposed to CRBN-based degraders” value is given as “limited, if any, shift”. On MDR1 transporter, the MDR1 substrate result is on record as “MDR1 substrates”.

On to `CC(C)(C)c1cnc(CSc2cnc(NC(=O)C3CCN(CC(=O)NCCOCCOCCOCCNc4cccc5c4C(=O)N(C4CCC(=O)NC4=O)C5=O)CC3)s2)o1` (stereo not drawn) [Thal-SNS-032], for which, in the data set on MM.1S-Cas9+ cells, the “sgRNA enrichment, short-term screen” value is recorded as “CRBN is the top gene in terms of sgRNA enrichment”. Also, the “shift of dose response curve in pools previously exposed to CRBN-based degraders” value in the data set on pools of MM cells is recorded as “major shifts to the right”.

In the case of `Cc1sc2c(c1C)C(c1ccc(Cl)cc1)=N[C@@H](CC(=O)NCCCCCCCCNC(=O)COc1cccc3c1C(=O)N(C1CCC(=O)NC1=O)C3=O)c1nnc(C)n1-2` (stereo partly drawn) [dBET6], in the data set on MM.1S-dCas9-VP64 cells, the “sgRNA enrichment, gene activation screen” value is “ABCB1, the gene for the MDR1 transporter, was commonly identified as the only gene with sgRNA enrichment”. For the same molecule, the “sgRNA enrichment, short-term screen” value in the data set on MM.1S-Cas9+ cells is on record as “CRBN is the top gene in terms of sgRNA enrichment”. For the same molecule, the “change in responsiveness in the presence of bone-marrow stromal cells” value in [1] is given as “No major changes in dBET6 responsiveness”. For the same molecule, the BRD2 protein levels result at BRD2 is “rapid and robust depletion”. For the same molecule, the MDR1 substrate result on MDR1 transporter is “MDR1 substrates”. In addition, the c-Myc protein levels result with c-Myc was “rapid and robust depletion”. Besides, the “transcriptional profile (RNA-Seq), down-regulated transcripts” value with MM.1S cells (dBET6 0.1 or 0.5 μM vs JQ1 0.5 μM, 4 h) is on record as “down-regulation of a larger group of transcripts”. Besides, the “suppression of c-MYC at transcript level” value in the data set with MM.1S cells (dBET6 vs JQ1-treated MM.1S cells) is “more pronounced suppression of c-MYC”. Also, the “response of lines with low CRBN levels” value in data set [2] is reported as “remained responsive to dBET6”.
